Molecules are shown by their SMILES.

From a melting point compilation (Tetko et al.; mined from patent text by program, amines drawn as free bases though some values may be those of a salt) come the findings set out here.

In general, melting point refers to the temperature of the solid-liquid transition.

For the molecule `COc1cc(CCNC(=O)[C@@H](N)C(C)C)ccc1OCC#Cc1ccc(Cl)cc1`, the melting point was 115 to 117 °C.

Consider `CCOC(=O)C(Cc1ccc(C(F)(F)F)cc1)C(=O)c1ccc(F)cc1F` (centres undefined), for which the melting point lay within 34 to 35 °C.

For the molecule `CCOC(=O)Cc1nc(Cl)c(Cl)s1`, the melting point was found to be 63 °C. The figure for `CC1(C)CCC(C)(C)c2cc3sc(-c4ccc(C(=O)O)cc4)cc3cc21` is 291 to 292 °C; for `CCc1noc(-c2cn(-c3cc(Cl)ccc3OCc3ccccc3)cn2)n1` it is 100 to 102 °C; for `Cc1ccccc1-c1cc(N2CCOCC2)ncc1N(C)C(=O)C(C)(C)c1cc(C(F)(F)F)cc(C(F)(F)F)c1` it is 129 to 130 °C. `CC1(C)C(=O)Nc2cc([N+](=O)[O-])c(NC(=O)c3ccncc3)cc21`: the melting point was 310 to 318 °C.

With `CC(C)N1C(=O)C(C)(C)N=C(c2ccccc2Cl)c2cc([N+](=O)[O-])ccc21`, the melting point lay within 169 to 170 °C. The figure for `CCOC(=O)c1cc(NS(=O)(=O)c2cccnc2)ccc1Oc1cncc(Cl)c1` is 120 to 122 °C; for `CC(=O)c1ccc2c(c1)C1(c3ccccc3-c3ccccc31)c1ccccc1-2` it is 225 °C; for `CCOC(=O)N1Cc2cc(=O)[nH]nc2C(C)C1` (centres undefined) it is 125 to 127 °C.

The molecule `Cc1nc2cccc(N)c2c(=O)n1C1CCC(=O)NC1=O` (centres undefined) returned a melting point of 293 to 295 °C. `Cc1cc2c(cc1C)C(=O)C(Nc1ccccc1)=CC2=O` came in with a melting point of 208 to 210 °C. The figure for `CN(C)C(=S)Oc1ccc(C(=O)c2ccc([N+](=O)[O-])cc2)cc1` is 168 °C.

The molecule `CC(C)(C)NS(=O)(=O)c1ccccc1-c1ccc(CBr)c(F)c1` gave a melting point of 138 to 140 °C. The molecule `COc1ccccc1CN1N=C(c2ccc(OC)c(OC)c2)[C@@H]2CCCC[C@@H]2C1=O` (relative stereo) returned a melting point of 96 to 99 °C. `O=C(O)CCCc1ccc(-c2ccc(F)cc2)cc1` displayed a melting point of 118 to 120 °C.

`O=C(O)C[C@H](C(=O)N[C@H](CO)Cc1ccccc1)n1cc(-c2ccc(-c3ccccc3)cc2)cn1`: the melting point fell in the range of 154 to 159 °C. As for `COc1cc(C(F)(F)F)ccc1C#N`, the figure is 59 to 61 °C; as for `CCN1CCN(CCCOc2cc3ncc(C#N)c(Nc4cc(OC)c(Cl)cc4Cl)c3cc2OC)CC1`, 102 to 104 °C. The figure for `COC(=O)c1ccc(Oc2nn(Cc3ccccc3)c3ccccc23)o1` is 89 to 91 °C; for `Cc1ccc(-n2c(-c3ccccc3)cc(Br)c2-c2ccccc2)cc1` it is 201 to 202 °C.

Consider `Cc1ccc(C(=O)C2=C(O)C(=O)N(c3ccc(C)nn3)C2c2cccc(C(F)(F)F)c2)cc1` (centres undefined), for which the melting point was 232 °C. The figure for `CC(O)c1ccc2c3c1ccn3C(=O)CNC2` (centres undefined) is 295 to 297 °C. The figure for `OC1CCN(c2ccccc2)C12CCNCC2` (racemic) is 141 to 144 °C; for `CCN(CC)CCCCC1CCN(C(=O)N2c3cc(Cl)ccc3C(=O)Nc3cccnc32)CC1` it is 126 to 127 °C; for `CCCCN(CCCCO)c1ccc(C=Cc2ccc(C=CC3=C(C#N)C(=C(C#N)C#N)OC3(C)C(F)(F)F)s2)c(OCc2ccccc2)c1` (centres undefined) it is 176 to 178 °C.

The molecule `COC(=O)C(OC)(OC)C(=O)Nc1cc(Cl)cc(Cl)c1` registered a melting point of 160 to 164 °C. As for `Cc1ccc(N2CCN(Cc3ccc4c(c3)NCCN4)CC2)cc1Cl`, the figure is 151 to 152 °C. The figure for `CN(C(=O)COc1nc(C(Cl)(Cl)Cl)ns1)C1=CCCCC1` is 78 °C. As to `N#Cc1cc(Cc2ccc(Cl)cc2)ccc1N`, the melting point lay in the range of 91.5 to 93 °C.

`CS(=O)(=O)C1CCCCC1Br` (centres undefined) displayed a melting point of 45 to 48 °C.

The molecule `OC[C@@H](COc1ccccc1)OC1CCCCO1` (some centres undefined) gave a melting point of 39 to 41 °C. The figure for `O=C1N=NN=C2N=CN=C12` is 230 to 234 °C.
